In patent publication US10563204B2, “Methods of treating cancer harboring hemizygous loss of TP53” (priority 2015, dated 2020):
≈ marks a conversion by molar mass, not a printed value. Numbered stars: 1 amine (or outer) side, 2 acyl side, 3 side chain; on linkers, the order of the positions; unused ones are H or OH. Bridge positions count the residues as written; N and C are the ends. Square brackets hold non-standard residues; d marks the D form. Peptide text beside a SMILES is read from it. I, II: the chains in the order shown. Actinocin(9to1) = Cc1c2oc3c(C)ccc(C(=O)[*:1])c3nc-2c(C(=O)[*:2])c(N)c1=O; NMeV = CN[C@H](C(=O)O)C(C)C; Sar = CNCC(=O)O

Legend:
[1] = test system: POLR2A^neutral cells (HCT116, SW480); test: Cell proliferation and survival assay, POLR2A^neutral colorectal cancer cells; assay type: cell-based, human
Method: (§1) Equal numbers of cells were plated in 12-well plates in triplicate. Cells were fixed with 10% methanol and stained with 0.1% crystal violet (dissolved in 10% methanol) at indicated times. After staining, wells were washed three times with PBS and destained with acetic acid. The absorbance of the crystal violet solution was measured at 590 nm. For cell survival assay, cells were seeded at a concentration of 1,000 cells per well in 96-well plates and treated with indicated concentrations of α-Amanitin or actinomycin D 24 hours later. Cell viability was quantified using WST-1 reagent (Roche) according to the manufacturer's instructions. All experiments were performed in triplicate.

[2] = test system: POLR2A^loss cells (SW837, SNU283); test: Cell proliferation and survival assay, POLR2A^loss colorectal cancer cells; assay type: cell-based, human
Method: as §1

[3] = test system: POLR2A^loss HCT116 cells; test: Cell proliferation and survival assay, isogenic HCT116 cells with hemizygous loss of POLR2A (CRISPR/Cas9); assay type: cell-based, human
Method: as §1
To exclude the effects of various genetic backgrounds across cell lines, the CRISPR (clustered regularly interspaced short palindromic repeat)/Cas9 system was employed to generate an isogenic HCT116 cell line with hemizygous loss of POLR2A (Wang et al., 2014; Wang et al., 2013). Two single-guide RNAs (sgRNAs) were designed to target the second exon of the POLR2A gene (FIG. 9A). Both of them efficiently targeted and disrupted the POLR2A gene, as shown in the Surveyor analysis (FIG. 9B). Single colonies of HCT116 cells bearing mono-allelic deletion of POLR2A were selected and verified by DNA sequencing (FIG. 9C). Small deletion in the targeted region led to open reading frame shift, producing only a short stretch of the N-terminal peptide without all functional domains of POLR2A. […] However, hemizygous deletion of POLR2A dramatically sensitized HCT116 cells to α-Amanitin treatment with an IC50 of ˜0.1 μg ml^−1, which is 8-fold lower than that of parental HCT116 cells (FIGS. 2G and 2H). […] POLR2A^loss and POLR2A^neutral HCT116 cells expressing Dox-inducible POLR2A shRNA were also generated. […] While a low-dose of Dox (100 ng ml^−1) was sufficient to remarkably kill the POLR2A^loss cells, high doses of Dox only had minimal effects on the POLR2A^neutral cells (FIGS. 2I, 2J, and 9H).

[4] = test system: xhCRC and HCT116 cells; test: Sensitivity of isogenic xhCRC and HCT116 cells (TP53 / POLR2A hemizygous deletion) to α-Amanitin; assay type: cell-based, human
Method: as §1
(§2) Blockage of RNA polymerase may lead to p53 accumulation and activation (Derheimer et al., 2007). To examine the effects of p53 on cell response to POLR2A inhibition, the concomitant deletion of TP53 and POLR2A was recapitulated in HCT116 and xhCRC cell lines (FIGS. 3A and 10A-10C). […] The RNA polymerase II is in charge of mRNA synthesis, an essential function for any type of cells including therapy-resistant tumor cells. The drug sensitivity of POLR2A^neutral and POLR2A^loss cells to three major chemotherapy drugs for colorectal cancer (5-fluorouracil (5-FU), oxaliplatin, and SN-38) was examined. […]

[5] = test system: POLR2A^loss xhCRC cells; assay type: cell-based, human; conditions: α-Amanitin combined with each of the three drugs
Method: as §1, §2

[6] = test system: POLR2A^neutral xhCRC cells; assay type: cell-based, human; conditions: α-Amanitin combined with each of the three drugs
Method: as §1, §2

[7] = molecular target: OATP1B3 (Homo sapiens, UniProt Q9NPD5); conditions: free α-Amanitin; transporter on hepatocyte membrane; cited from earlier work
Chain of OATP1B3 (Q9NPD5 whole entry): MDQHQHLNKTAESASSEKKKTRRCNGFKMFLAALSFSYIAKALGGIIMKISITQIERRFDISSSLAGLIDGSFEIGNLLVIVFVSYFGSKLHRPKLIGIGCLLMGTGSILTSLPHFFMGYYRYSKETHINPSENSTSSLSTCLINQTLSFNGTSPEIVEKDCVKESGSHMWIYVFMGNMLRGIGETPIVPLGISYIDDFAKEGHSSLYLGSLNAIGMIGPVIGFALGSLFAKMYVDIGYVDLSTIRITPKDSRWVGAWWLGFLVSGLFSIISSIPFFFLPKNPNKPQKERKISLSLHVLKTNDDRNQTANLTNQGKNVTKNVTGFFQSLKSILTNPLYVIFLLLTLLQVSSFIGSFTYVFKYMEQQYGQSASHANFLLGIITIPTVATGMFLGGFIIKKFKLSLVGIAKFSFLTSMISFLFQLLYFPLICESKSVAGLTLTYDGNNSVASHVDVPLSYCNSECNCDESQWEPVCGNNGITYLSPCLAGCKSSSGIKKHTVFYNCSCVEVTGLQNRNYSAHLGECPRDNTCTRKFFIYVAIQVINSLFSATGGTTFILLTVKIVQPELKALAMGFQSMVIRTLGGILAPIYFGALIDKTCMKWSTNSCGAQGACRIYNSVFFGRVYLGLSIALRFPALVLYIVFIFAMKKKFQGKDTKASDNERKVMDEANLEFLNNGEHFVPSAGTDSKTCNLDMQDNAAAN

[8] = free α-Amanitin; cited from earlier work

Compound	half-maximum inhibitory concentration (IC50) ([1]; POLR2A^neutral cells (HCT116, SW480)) [µg/mL]	cell growth / cell death at high concentrations ([1]; ≥1 μg ml^−1, HCT116, SW480)	resistance to α-Amanitin after re-expression of exogenous POLR2A ([2]; SNU283 and SW837 re-expressing exogenous POLR2A, level comparable to HCT116 and SW480)	cell-killing effect compared with POLR2A^neutral cells ([2]; concentrations from 0 to 1.0 μg ml^−1)	IC50 of POLR2A^neutral cells relative to that of POLR2A^loss cells ([2]; neutral (HCT116, SW480) vs loss (SW837, SNU283)) [fold]	cell growth / cell death at high concentrations ([2]; ≥1 μg ml^−1, SW837, SNU283)	IC50 ([3]; HCT116 with hemizygous deletion of POLR2A) [µg/mL]	IC50 lower than that of parental HCT116 cells ([3]; POLR2A^loss vs parental HCT116) [fold]	change in sensitivity to α-Amanitin ([4]; cells with hemizygous deletion of TP53)	change in sensitivity to α-Amanitin ([4]; cells with hemizygous loss of POLR2A, regardless of TP53 status)	effect on cell killing by 5-FU, oxaliplatin and SN-38 [5]	effect on cell killing by 5-FU, oxaliplatin and SN-38 [6]	binding by OATP1B3 [7]	liver toxicity [8]	sensitivity compared with POLR2A^neutral cells ([2]; actinomycin D treatment)	difference in sensitivity between POLR2A^loss and POLR2A^neutral HCT116 cells ([3]; actinomycin D)
CC[C@H](C)[C@@H]1NC(=O)CNC(=O)[C@@H]2Cc3c([nH]c4cc(O)ccc34)[S+]([O-])C[C@@H](NC(=O)CNC1=O)C(=O)N[C@@H](CC(N)=O)C(=O)N1C[C@H](O)C[C@H]1C(=O)N[C@@H]([C@@H](C)[C@@H](O)CO)C(=O)N2 (stereo in doubt) [α-Amanitin]	~1.0	complete cell death	restored their resistance	significantly higher levels of cell-killing effect	10	complete cell death	~0.1 (≈ 0.109 µM)	8	no significant changes	markedly sensitized	significantly enhanced cell-killing effects	no notable effects	specifically bound	toxic to liver	–	–
Cc1c2oc3c(C)ccc(C(=O)N[C@@H]4C(=O)N[C@H](C(C)C)C(=O)N5CCC[C@H]5C(=O)N(C)CC(=O)N(C)[C@@H](C(C)C)C(=O)O[C@@H]4C)c3nc-2c(C(=O)N[C@@H]2C(=O)N[C@H](C(C)C)C(=O)N3CCC[C@H]3C(=O)N(C)CC(=O)N(C)[C@@H](C(C)C)C(=O)O[C@@H]2C)c(N)c1=O [actinomycin D] (I: T[dV]P[Sar][NMeV] / II: T[dV]P[Sar][NMeV]; ester I:1-I:C, II:1-II:C; linker I:N-II:N via Actinocin(9to1))	–	–	–	–	–	–	–	–	–	–	–	–	–	–	did not show any greater sensitivity	no substantial difference
